Patent publication US8591908B2, “Immunogen for preparation of therapeutic vaccines or drugs for treatment of hepatitis B and the producing method and use thereof” (Institute of Immunology, PLA, priority 2002, dated 2013)
Ends that are not written are not given here. * marks the point of attachment. Palmitoyl = CCCCCCCCCCCCCCCC(=O)*

Legend:
[1] = test system: human peripheral blood mononuclear cells (PBMCs); assay: Proliferation of human PBMCs from normal persons, 3H-TdR; format: cell-based; conditions: 0.1 μg, 1 μg and 10 μg/ml with IL-2
Protocol: Anticoagulant peripheral blood was collected from normal persons under sterile conditions, PBMCs were isolated by conventional Ficoll-Hypaque density gradient centrifugation and were cultured in RPMI1640 culture media (containing 10% calf serum, 100 u/ml penicillin-streptomycin, L-glutamine) in vitro on 24-well culture plates at the cell concentration of 10^6/ml. Blank control group, test group and Pre-S(2) control group were included, to which IL-2 (30 IU/ml) and test drug (0.1 μg/ml, 1 μg/ml, 10 μg/ml) were added. After the cells were cultured for 6 days, IL-2 and the test drug were added at the same dose to stimulate the cells again, and then 3H-TdR (1 uCi/ml) was added. After the cells were further cultured for 18 hours, they were collected and tested by liquid scintillation.

Balb/c mice = assay: Th1 activation, serum Th1/Th2 cytokines by ELISA; format: in vivo; conditions: serum 3 weeks after immunization
Protocol: Balb/c mice (both male and female) of 2-3 Months old were divided into 8 groups, and were immunized with εPA44 at both postpede palmas once a week for three times at different doses: 0.001 nmol, 0.01 nmol, 0.1 nmol, 0.5 nmol, 1 nmol, 10 nmol, 20 nmol, and 40 nmol respectively. 3 weeks after immunization, the mice were bled by removing their eyeballs and serums were collected. Th1/Th2 cytokines were tested by ELISA.

[2] = test system: T2 cells, E6 cells, and HepG2.2.15 cells; assay: HBV-specific effective CTL from hepatitis patients' PBMC, cytotoxicity; format: cell-based, human
Protocol: Acute and chronic hepatitis blank control groups, acute hepatitis+test drug group and chronic hepatitis+test drug group were included. The PBMC's from the patients were cultured in vitro and stimulated repetitively to generate antigen-specific effective CTL cells and amplified their number. Then they were used to cytotoxically kill peptide antigen pre-coated T2 cells, E6 cells, and HepG2.2.15 cells.

[3] = test system: HBV DNA in HBV transgenic mice; assay: HBV transgenic mice: HBV DNA in serum, quantitative PCR; format: in vivo; conditions: 10th, 20th, 30th day after three immunizations, 10-1000 U/mouse
Protocol: The levels of cytokines such as IFN-γ, IL-4, etc. in supernatant were measured by the ELISA method, and the activity of the test drug (CH3(CH2)14COKSSQYIKANSKFIGITEAAASIVSPFIPLLGGGDPRVRGLYFPA) (SEQ ID NO:5) for inducing the differentiation of T cells into Th1/Th2 type was analyzed. […] The expression frequency of IFN-γ secreting cells in peripheral blood lymphocytes was measured by the ELI-SPOT method in said supernatant. […] On the 10th, 20th and 30th day after the end of the three immunizations, bloods were removed, serum isolated, and the contents of HBsAg and HBV-DNA in the serum were separately measured by the ELISA method and quantitative PCR method.

[4] = Isoelectric point, ampholyte pH gradient isoelectric focusing; format: physicochemical; conditions: 8N urea, TritonX-114
Protocol: Supported ampholyte pH gradient isoelectric focusing was employed. Pretreatment: 8N urea and 2% TritonX-114. Urea at the corresponding concentration and 0.5% TritonX-114 were also added to polyacrylamide gel. Conventional Coomassie brilliant blue was used for dyeing.

K(Palmitoyl)SSQYIKANSKFIGITEAAAFLPSDFFPSVGGGDPRVRGLYFPA-OH [SEQ ID NO:1, CH3(CH2)14COKSSQYIKANSKFIGITEAAAFLPSDFFPSVGGGDPRVRGLYFPA]
proliferation of human PBMCs [1]: stimulated the proliferation of human PBMCs in a manner of dose dependence | dose inducing the generation of IFN-γ and IL-2 (Balb/c mice): 0.01 nmol | target cell-specific lysis rate ([2]; PBMCs from acute hepatitis patient in convalescent phase): up to 68.6% | target cell-specific lysis rate ([2]; PBMCs from chronic hepatitis patient): up to 42.6% | specific killing of target cells ([2]; PBMCs of hepatitis patients): specifically kill aforesaid three target cell lines | HBV-DNA in the serum (copy number, replication level) [3]: obviously decreased in a manner of dose-dependence and time-dependence | isoelectric point [4]: 7.2 pH
